Reference: patent publication US20050112163A1, “PEST CONTROLLER AMD METHOD FOR CONTROLLING PESTS THEREWITH” (priority 2002, published 2005)

Experiment: Vapor pressure by Donovan method
Type: physicochemical
Details: at 25° C. by Donovan method
Method: Donovan method is a method reported by a person in New method for estimating vapor pressure by the use of gas chromatography: Journal of Chromatography A. 749, pp. 123-129 (1996).
Test pest controllers (a) and (b) were made by the pest controller 1 shown in FIG. 2 with chemical substance 22 containing compound (A) (2,3,5,6-tetrafluoro-4-methoxymethylbenzyl 3-(1-propenyl)-2,2-dimethylcyclopropanecarboxylate, the vapor pressure at 25° C. by Donovan method: 1.4×10^−5 mmHg) as an active ingredient.

CC=CC1C(C(=O)OCc2c(F)c(F)c(COC)c(F)c2F)C1(C)C (stereo not shown) [compound (A), 2,3,5,6-tetrafluoro-4-methoxymethylbenzyl 3-(1-propenyl)-2,2-dimethylcyclopropanecarboxylate]
vapor pressure: 1.4×10^−5 mmHg
